# Measured values as given in patent US20230065740A1, “CYCLIN-DEPENDENT KINASE INHIBITORS” (SPV THERAPEUTICS INC., priority 2018, published 2023).
# pIC50: −log10 of the molar value.
# What was measured:
# CDK6-CYCLIND3 = target: T1, CDK6-CYCLIND3 (Homo sapiens, UniProt Q00534); assay: Microfluidic LabChip kinase inhibition assay, CDK6-CyclinD3; format: biochemical; conditions: Table 2; 300 μM ATP, 2 nM enzyme; read-out: CDK6 IC50
# T1 construct: purchased Carna
# CDK4-CYCLIND1 = CDK4-CYCLIND1 (Homo sapiens, UniProt P11802); assay: Microfluidic LabChip kinase inhibition assay, CDK4-CyclinD1; conditions: CDK4 IC50 (μM), Table 2; 200 μM ATP, 1 nM enzyme
# Sequence of CDK4-CYCLIND1 (P11802 whole entry): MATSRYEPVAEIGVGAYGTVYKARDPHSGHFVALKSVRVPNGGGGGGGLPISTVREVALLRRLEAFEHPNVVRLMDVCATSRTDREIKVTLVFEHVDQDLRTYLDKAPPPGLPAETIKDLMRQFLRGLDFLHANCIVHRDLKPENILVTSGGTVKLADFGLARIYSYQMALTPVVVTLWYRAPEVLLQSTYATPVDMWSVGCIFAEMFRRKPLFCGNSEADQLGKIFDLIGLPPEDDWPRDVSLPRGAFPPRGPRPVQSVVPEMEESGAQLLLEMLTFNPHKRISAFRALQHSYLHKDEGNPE
# Sequence of CDK4-CYCLIND1 (P24385 whole entry partner): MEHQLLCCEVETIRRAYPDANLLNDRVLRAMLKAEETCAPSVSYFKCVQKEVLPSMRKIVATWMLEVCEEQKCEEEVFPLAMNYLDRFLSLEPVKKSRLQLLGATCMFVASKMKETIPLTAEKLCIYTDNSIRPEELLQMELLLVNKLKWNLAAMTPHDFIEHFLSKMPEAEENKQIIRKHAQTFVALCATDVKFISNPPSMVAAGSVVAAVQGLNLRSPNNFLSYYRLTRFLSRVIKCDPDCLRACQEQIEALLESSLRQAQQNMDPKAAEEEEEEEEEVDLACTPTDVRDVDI
# Protocol: Inhibition assays were performed using microfluidic LabChip 300 Drug Discovery System from Caliper Life Sciences. […] The assay has a total volume of 10 μL consisting of 5 μL of enzyme and buffer and 5 μL of substrate and buffer. The test compounds were diluted in 100% dimethylsulfoxide (DMSO) using 3-fold dilution steps. […] Compounds were tested in a single well for each dilution and the final concentration of DMSO was maintained at 1%.
# The assay buffer contained 100 mM HEPES, pH 7.5, 0.01% Triton X-100, 0.1% bovine serum albumin (BSA), 5 mM MgCl2; 1 mM dithiothreitol (DTT), 10 μM sodium orthovanadate, and 10 μM β-glycerophosphate.
# The assay was conducted by adding 5 μL of enzyme, adenosine triphosphate (ATP) and buffer to an assay plate. A 100 nL aliquot of the diluted compounds were added to the plate. The assay was initiated by the addition of 5 μL of phosphoenolpyruvate substrate (PEP) in buffer. […] The reaction was terminated by the addition of EDTA. The plates were analyzed using a Caliper LabChip 3000.
# T1 sequence (Q00534 whole entry): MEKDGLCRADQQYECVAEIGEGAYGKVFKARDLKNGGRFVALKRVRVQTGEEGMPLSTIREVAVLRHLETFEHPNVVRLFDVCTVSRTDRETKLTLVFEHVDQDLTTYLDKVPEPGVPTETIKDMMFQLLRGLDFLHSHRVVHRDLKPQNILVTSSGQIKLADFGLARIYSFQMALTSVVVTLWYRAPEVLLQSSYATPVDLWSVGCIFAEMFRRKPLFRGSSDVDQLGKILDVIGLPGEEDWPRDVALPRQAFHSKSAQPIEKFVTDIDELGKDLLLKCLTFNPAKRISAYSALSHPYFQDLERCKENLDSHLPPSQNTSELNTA
# T1 sequence (P30281 whole entry partner): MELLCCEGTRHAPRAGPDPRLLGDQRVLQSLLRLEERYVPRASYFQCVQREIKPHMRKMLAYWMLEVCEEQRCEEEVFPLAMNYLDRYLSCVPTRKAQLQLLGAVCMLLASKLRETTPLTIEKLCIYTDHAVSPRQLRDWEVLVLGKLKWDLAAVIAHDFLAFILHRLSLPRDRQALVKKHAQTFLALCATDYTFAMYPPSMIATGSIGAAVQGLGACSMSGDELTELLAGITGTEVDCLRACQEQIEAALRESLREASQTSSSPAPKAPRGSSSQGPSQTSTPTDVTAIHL
pIC50 (CDK6-CYCLIND3),IC50 (CDK4-CYCLIND1) [µM],Compound
6.40,0.0701,"CC(C)N1CCN(c2ccc(Nc3ncc4c(n3)N(C3CCCC3)C3(CCNC3=O)C4)cc2)CC1 (stereo not drawn) [Compound C46, 7′-cyclopentyl-2′-((4-(4-isopropylpiperazin-1-yl)phenyl)amino)-5′,7′-dihydrospiro[pyrrolidine-3,6′-pyrrolo[2,3-d]pyrimidin]-2-one]"
6.76,0.0298,"CC(C)N1CCN(c2ccc(Nc3ncc4c(n3)N(C3CCCC3)C3(CCNC3=O)C4)cc2F)CC1 (stereo not drawn) [Compound C49, 7′-cyclopentyl-2′-((3-fluoro-4-(4-isopropylpiperazin-1-yl)phenyl)amino)-5′,7′-dihydrospiro[pyrrolidine-3,6′-pyrrolo[2,3-d]pyrimidin]-2-one]"
< 4.52,> 30,"CC(C)N1CCN(c2ccc(Nc3ncc4c(n3)N(C3CCCC3)C3(CCNC3=O)C4)c(F)c2)CC1 (stereo not drawn) [Compound C52, 7′-cyclopentyl-2′-((2-fluoro-4-(4-isopropylpiperazin-1-yl)phenyl)amino)-5′,7′-dihydrospiro[pyrrolidine-3,6′-pyrrolo[2,3-d]pyrimidin]-2-one]"
6.59,0.0658,"O=C1NCCC12Cc1cnc(Nc3ccc(N4CCNCC4)nc3)nc1N2C1CCCC1 (stereo not drawn) [Compound C53, 7′-cyclopentyl-2′-((6-(piperazin-1-yl)pyridin-3-yl)amino)-5′,7′-dihydrospiro[pyrrolidine-3,6′-pyrrolo[2,3-d]pyrimidin]-2-one]"
6.38,0.0926,"CN1CCN(c2ccc(Nc3ncc4c(n3)N(C3CCCC3)C3(CCNC3=O)C4)cn2)CC1 (stereo not drawn) [Compound C54, 7′-cyclopentyl-2′-((6-(4-methylpiperazin-1-yl)pyridin-3-yl)amino)-5′,7′-dihydrospiro[pyrrolidine-3,6′-pyrrolo[2,3-d]pyrimidin]-2-one]"
6.66,0.053,"CC(C)N1CCN(c2ccc(Nc3ncc4c(n3)N(C3CCCC3)C3(CCNC3=O)C4)cn2)CC1 (stereo not drawn) [Compound C55, 7′-cyclopentyl-2′-((6-(4-isopropylpiperazin-1-yl)pyridin-3-yl)amino)-5′,7′-dihydrospiro[pyrrolidine-3,6′-pyrrolo[2,3-d]pyrimidin]-2-one]"
6.02,0.387,"CC(C)N1CC=C(c2ccc(Nc3ncc4c(n3)N(C3CCCC3)C3(CCNC3=O)C4)nc2)CC1 (stereo not drawn) [Compound C57, 7′-cyclopentyl-2′-((1′-isopropyl-1′,2′,3′,6′-tetrahydro-[3,4′-bipyridin]-6-yl)amino)-5′,7′-dihydrospiro[pyrrolidine-3,6′-pyrrolo[2,3-d]pyrimidin]-2-one]"
5.71,0.288,"COc1cc(Nc2ncc3c(n2)N(C2CCCC2)C2(CCNC2=O)C3)ccc1N1CCN(C(C)C)CC1 (stereo not drawn) [Compound C62, 7′-cyclopentyl-2′-((4-(4-isopropylpiperazin-1-yl)-3-methoxyphenyl)amino)-5′,7′-dihydrospiro[pyrrolidine-3,6′-pyrrolo[2,3-d]pyrimidin]-2-one]"
6.05,0.172,"Cc1cc(Nc2ncc3c(n2)N(C2CCCC2)C2(CCNC2=O)C3)ccc1N1CCN(C(C)C)CC1 (stereo not drawn) [Compound C63, 7′-cyclopentyl-2′-((4-(4-isopropylpiperazin-1-yl)-3-methylphenyl)amino)-5′,7′-dihydrospiro[pyrrolidine-3,6′-pyrrolo[2,3-d]pyrimidin]-2-one]"

# The remaining lines, values behind:
Compound,pIC50 (CDK6-CYCLIND3),IC50 (CDK4-CYCLIND1) [µM]
"O=C1NCCC12Cc1cnc(Nc3ccc(N4CCNCC4)c(F)c3)nc1N2C1CCCC1 (stereo not drawn) [Compound C47, 7′-cyclopentyl-2′-((3-fluoro-4-(piperazin-1-yl)phenyl)amino)-5′,7′-dihydrospiro[pyrrolidine-3,6′-pyrrolo[2,3-d]pyrimidin]-2-one]",6.75,0.0315
"CN1CCN(c2ccc(Nc3ncc4c(n3)N(C3CCCC3)C3(CCNC3=O)C4)cc2F)CC1 (stereo not drawn) [Compound C48, 7′-cyclopentyl-2′-((3-fluoro-4-(4-methylpiperazin-1-yl)phenyl)amino)-5′,7′-dihydrospiro[pyrrolidine-3,6′-pyrrolo[2,3-d]pyrimidin]-2-one]",6.89,0.0161
"O=C1NCCC12Cc1cnc(Nc3ccc(N4CCNCC4)cc3F)nc1N2C1CCCC1 (stereo not drawn) [Compound C50, 7′-cyclopentyl-2′-((2-fluoro-4-(piperazin-1-yl)phenyl)amino)-5′,7′-dihydrospiro[pyrrolidine-3,6′-pyrrolo[2,3-d]pyrimidin]-2-one]",5.38,0.888
"CN1CCN(c2ccc(Nc3ncc4c(n3)N(C3CCCC3)C3(CCNC3=O)C4)c(F)c2)CC1 (stereo not drawn) [Compound C51, 7′-cyclopentyl-2′-((2-fluoro-4-(4-methylpiperazin-1-yl)phenyl)amino)-5′,7′-dihydrospiro[pyrrolidine-3,6′-pyrrolo[2,3-d]pyrimidin]-2-one]",< 4.52,> 30
"O=C1NCCC12Cc1cnc(Nc3ccc(C4=CCNCC4)cn3)nc1N2C1CCCC1 (stereo not drawn) [Compound C56, 7′-cyclopentyl-2′-((1′,2′,3′,6′-tetrahydro-[3,4′-bipyridin]-6-yl)amino)-5′,7′-dihydrospiro[pyrrolidine-3,6′-pyrrolo[2,3-d]pyrimidin]-2-one]",6.10,0.372
"O=C1NCCC12Cc1cnc(Nc3ccc(N4CCOCC4)c(F)c3)nc1N2C1CCCC1 (stereo not drawn) [Compound C58, 7′-cyclopentyl-2′-((3-fluoro-4-morpholinophenyl)amino)-5′,7′-dihydrospiro[pyrrolidine-3,6′-pyrrolo[2,3-d]pyrimidin]-2-one]",6.03,0.222
"CN(C)CCOc1ccc(Nc2ncc3c(n2)N(C2CCCC2)C2(CCNC2=O)C3)cc1 (stereo not drawn) [Compound C59, 7′-cyclopentyl-2′-((4-(2-(dimethylamino)ethoxy)phenyl)amino)-5′,7′-dihydrospiro[pyrrolidine-3,6′-pyrrolo[2,3-d]pyrimidin]-2-one]",6.20,0.142
"CN(C)CCOc1ccc(Nc2ncc3c(n2)N(C2CCCC2)C2(CCNC2=O)C3)nc1 (stereo not drawn) [Compound C60, 7′-cyclopentyl-2′-((5-(2-(dimethylamino)ethoxy)pyridin-2-yl)amino)-5′,7′-dihydrospiro[pyrrolidine-3,6′-pyrrolo[2,3-d]pyrimidin]-2-one]",5.47,1.5
"CN(C)CCOc1ccc(Nc2ncc3c(n2)N(C2CCCC2)C2(CCNC2=O)C3)cn1 (stereo not drawn) [Compound C61, 7′-cyclopentyl-2′-((6-(2-(dimethylamino)ethoxy)pyridin-3-yl)amino)-5′,7′-dihydrospiro[pyrrolidine-3,6′-pyrrolo[2,3-d]pyrimidin]-2-one]",6.10,0.19
"CN(C)C(=O)c1cc2cnc(Nc3ccc(N4CCN(C#N)CC4)cn3)nc2n1C1CCCC1 [Compound C64, 2-((5-(4-cyanopiperazin-1-yl)pyridin-2-yl)amino)-7-cyclopentyl-N,N-dimethyl-7H-pyrrolo[2,3-d]pyrimidine-6-carboxamide]",< 4.52,> 30
"CN1C(=O)CC2(Cc3cnc(Nc4ccc(N5CCNCC5)cn4)nc3N2C2CCCC2)C1=O (stereo not drawn) [Compound C65, 7′-cyclopentyl-1-methyl-2′-((5-(piperazin-1-yl)pyridin-2-yl)amino)-5′,7′-dihydrospiro[pyrrolidine-3,6′-pyrrolo[2,3-d]pyrimidine]-2,5-dione]",4.81,12.3
"CN1CCN(c2ccc(Nc3ncc4c(n3)N(C3CCCC3)C3(CC(=O)N(C)C3=O)C4)nc2)CC1 (stereo not drawn) [Compound C66, 7′-cyclopentyl-1-methyl-2′-((5-(4-methylpiperazin-1-yl)pyridin-2-yl)amino)-5′,7′-dihydrospiro[pyrrolidine-3,6′-pyrrolo[2,3-d]pyrimidine]-2,5-dione]",< 4.52,29.8
"CC(C)N1CCN(c2ccc(Nc3ncc4c(n3)N(C3CCCC3)C3(CC(=O)N(C)C3=O)C4)nc2)CC1 (stereo not drawn) [Compound C67, 7′-cyclopentyl-2′-((5-(4-isopropylpiperazin-1-yl)pyridin-2-yl)amino)-1-methyl-5′,7′-dihydrospiro[pyrrolidine-3,6′-pyrrolo[2,3-d]pyrimidine]-2,5-dione]",< 4.52,26.7
"CN1C(=O)CC2(Cc3cnc(Nc4ccc(N5CCNCC5)cc4)nc3N2C2CCCC2)C1=O (stereo not drawn) [Compound C68, 7′-cyclopentyl-1-methyl-2′-((4-(piperazin-1-yl)phenyl)amino)-5′,7′-dihydrospiro[pyrrolidine-3,6′-pyrrolo[2,3-d]pyrimidine]-2,5-dione]",5.18,2.49
"CN1CCN(c2ccc(Nc3ncc4c(n3)N(C3CCCC3)C3(CC(=O)N(C)C3=O)C4)cc2)CC1 (stereo not drawn) [Compound C69, 7′-cyclopentyl-1-methyl-2′-((4-(4-methylpiperazin-1-yl)phenyl)amino)-5′,7′-dihydrospiro[pyrrolidine-3,6′-pyrrolo[2,3-d]pyrimidine]-2,5-dione]",5.55,1.08
"CC(C)N1CCN(c2ccc(Nc3ncc4c(n3)N(C3CCCC3)C3(CC(=O)N(C)C3=O)C4)cc2)CC1 (stereo not drawn) [Compound C70, 7′-cyclopentyl-2′-((4-(4-isopropylpiperazin-1-yl)phenyl)amino)-1-methyl-5′,7′-dihydrospiro[pyrrolidine-3,6′-pyrrolo[2,3-d]pyrimidine]-2,5-dione]",6.46,0.159
"CN1C(=O)CC2(Cc3cnc(Nc4ccc(N5CCNCC5)c(F)c4)nc3N2C2CCCC2)C1=O (stereo not drawn) [Compound C71, 7′-cyclopentyl-2′-((3-fluoro-4-(piperazin-1-yl)phenyl)amino)-1-methyl-5′,7′-dihydrospiro[pyrrolidine-3,6′-pyrrolo[2,3-d]pyrimidine]-2,5-dione]",4.93,4.94
"CN1CCN(c2ccc(Nc3ncc4c(n3)N(C3CCCC3)C3(CC(=O)N(C)C3=O)C4)cc2F)CC1 (stereo not drawn) [Compound C72, 7′-cyclopentyl-2′-((3-fluoro-4-(4-methylpiperazin-1-yl)phenyl)amino)-1-methyl-5′,7′-dihydrospiro[pyrrolidine-3,6′-pyrrolo[2,3-d]pyrimidine]-2,5-dione]",4.86,2.53
